Reference: US20260078119A1, “DEGRADER COMPOUNDS AND USES THEREOF” (Bristol-Myers Squibb Company, priority 2024, published 2026)

Columns and labels:
FAK = molecular target: T1, FAK (Homo sapiens, UniProt Q05397); experiment: FAK-HiBiT Degradation Assay; assay type: cell-based; details: for DC50: JHH-4-FAK-HiBiT clone d01 cells, two hours incubation, 10-point dose response, 3-fold dilution starting at 1 μM, Nano-Glo HiBiT luminescence, read-out: FAK HiBiT EC50; for FAK HiBiT Ymin: lower limit of the four parameter fit (value A), Ymax derived using DMSO control, JHH-4-FAK-HiBiT cells, two hours
T1 construct: homozygous knock-in of a HiBiT tag (Promega Corporation, Madison, WI) to the C-terminus of the FAK gene in its natural genomic locus; endogenous in cells; host or cells: JHH-4-FAK-HiBiT clone d01 (CRISPR-Cas9 knock-in at the endogenous locus)
T1 sequence (Q05397 whole entry): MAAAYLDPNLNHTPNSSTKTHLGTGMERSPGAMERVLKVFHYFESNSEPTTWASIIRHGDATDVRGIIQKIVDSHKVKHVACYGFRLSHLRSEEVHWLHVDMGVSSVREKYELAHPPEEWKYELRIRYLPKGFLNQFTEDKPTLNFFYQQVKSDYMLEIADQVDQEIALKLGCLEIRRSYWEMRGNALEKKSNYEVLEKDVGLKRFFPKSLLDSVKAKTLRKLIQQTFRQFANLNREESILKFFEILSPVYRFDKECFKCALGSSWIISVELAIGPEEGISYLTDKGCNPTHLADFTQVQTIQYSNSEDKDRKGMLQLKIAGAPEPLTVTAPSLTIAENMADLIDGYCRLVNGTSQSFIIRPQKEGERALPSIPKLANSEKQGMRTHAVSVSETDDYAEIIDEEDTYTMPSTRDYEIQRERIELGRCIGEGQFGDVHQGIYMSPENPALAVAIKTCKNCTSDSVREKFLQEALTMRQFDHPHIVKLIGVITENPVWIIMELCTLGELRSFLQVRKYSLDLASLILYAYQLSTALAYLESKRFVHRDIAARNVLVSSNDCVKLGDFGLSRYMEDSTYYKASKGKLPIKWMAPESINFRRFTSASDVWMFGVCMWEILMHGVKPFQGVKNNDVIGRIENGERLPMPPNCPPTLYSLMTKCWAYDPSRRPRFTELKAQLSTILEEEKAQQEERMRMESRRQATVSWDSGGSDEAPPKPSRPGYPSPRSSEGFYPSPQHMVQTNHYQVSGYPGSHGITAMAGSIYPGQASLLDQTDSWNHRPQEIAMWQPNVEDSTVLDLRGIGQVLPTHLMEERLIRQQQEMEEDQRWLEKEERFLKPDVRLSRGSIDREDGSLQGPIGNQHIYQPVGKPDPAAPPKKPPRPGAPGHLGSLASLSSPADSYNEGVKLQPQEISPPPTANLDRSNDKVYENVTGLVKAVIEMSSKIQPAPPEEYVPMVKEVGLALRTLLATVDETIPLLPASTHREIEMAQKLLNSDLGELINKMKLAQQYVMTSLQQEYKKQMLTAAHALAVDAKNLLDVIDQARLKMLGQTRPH
Text: To generate JHH-4-FAK-HiBiT cells for the FAK degradation assay, JHH-4 cells (Japanese Collection of Research Biosources Cell Bank, Japan) were transfected with ribonucleoprotein reagents to introduce, by CRISPR-Cas9 editing, the homozygous knock-in of a HiBiT tag (Promega Corporation, Madison, WI) to the C-terminus of the FAK gene in its natural genomic locus. Clonal cell populations were established by expanding single cells after CRISPR-Cas9 editing, with a clonal cell line named JHH-4-FAK-HiBiT clone d01 confirmed by next generation DNA sequencing to contain the expected HiBiT edited FAK gene and was selected for FAK degradation screening. Cells were selected and maintained in complete DMEM media (DMEM, 10% Heat Inactivated FBS, and Non-Essential Amino Acids at 37° C. and 5% CO2). Cells were passaged every 3-4 days by reseeding 0.5×10^6 cells in a T75 flask.
Cells were dispensed into 384-well white plates (Corning #3570, NY) that were pre-spotted with compounds using an acoustic dispenser (Echo acoustic transfer system, Beckman Coulter Life Sciences, Carlsbad, CA) as a 10-point dose response curve with a 3-fold dilution starting at 1 μM and including a DMSO control. Twenty-five microliters of media containing 2000 JHH-4-FAK-HiBiT Clone d01 cells was dispensed per well. Assay plates were incubated at 37° C. with 5% CO2 for two hours. After incubation, 25 μL of Nano-Glo HiBiT Lytic Reagent Working Solution (Promega Corporation, Madison, WI) was added to each well and incubated at room temperature for 10 minutes protected from light. After 10 minutes, luminescence was read on a PHERAstar luminometer (BMG Labtech, Cary, NC).
To determine the half-maximal effective concentration (EC50) values for FAK-HiBIT degradation, a four parameter logistic model was used: (Sigmoidal Dose-Response Model)(FIT=(A+((B−A)/1+((C/x)^D)))) where C is the inflection point (EC50), D is the Hill slope, and A and B are the low and high limits of the fit respectively). The lower limit of the fit (value A) is referred to as Ymin. The maximum limit constraint, Ymax, was derived using DMSO control. The curves were processed and evaluated using Dotmatics Atlas (Insightful Science, LLC, Boston, MA).

CAL-51 cells = experiment: CAL-51 Cell Proliferation Assay; assay type: cell-based; details: for EC50: Homo sapiens, 120 hours incubation, 10-point dose response, 4-fold dilutions starting at 10 μM, Cell-Titer-Glo, read-out: CAL-51 Prolif EC50; for CAL-51 Prolif Ymin: minimal percent of DMSO control observed in the concentrations tested (Ymin-obs), 120 hours
Text: CAL-51 cells were obtained from Bristol Myers Squibb internal cell banks (originally sourced from DSMZ-German Collection of Microorganisms and Cell Cultures GmbH, Germany) and cultured in RPMI complete media (RPMI-1640, 10% Fetal Bovine serum, 1× Antibiotic-Antimycotic, and 1× Non-Essential Amino Acids). Compounds were dispensed into 384-well plates using an acoustic dispenser (Beckman Coulter Life Sciences, Carlsbad, CA) in duplicate with 14 compounds on each plate. For each compound, a 10-point dose response was printed at 4-fold dilutions starting at 10 μM. The DMSO concentration was kept constant for a final assay concentration of 0.1% per well assuming 50 uL final media volume. Compound plates were sealed and frozen at −20° C. until use.
For each assay batch, compound plates were thawed and allowed to reach room temperature, and cells were seeded at 350 cells per well in 50 μl complete RPMI media. After 120 hours of incubation at 37° C. and 5% CO2, cells were lysed by addition of 25 μL of Cell-Titer-Glo Reagent (Promega Corporation, Madison, WI), as per manufacturer's instructions, protected from light, shaken for 20 minutes, and total luminescence read by a CLARIOstar Plus plate reader (BMG LabTech, Cary, NC). Total luminescence signal is linearly correlated with cell number remaining in the well.
Luminescence data was processed per plate by subtracting reagent-only “blank” well luminescence from all measured values and calculating a percent of DMSO control value for each treatment well. Then, to determine the half-maximal effective concentration (EC50) values for cell growth inhibition, a four parameter logistic model was fit to the data for each DMSO-normalized compound: Sigmoidal Dose-Response Model: (FIT=(A+((B−A)/1+((C/x)^D)))) where C is the inflection point (EC50), D is the Hill slope, and A and B are the low and high limits of the fit respectively. The lower limit of the fit (value A) is referred to as Ymin-calculated. The minimal percent of DMSO control that is observed in the concentrations tested for each compound is labeled as “Ymin-obs”, and was recorded and reported in the tables. Sigmoidal fit curves were processed and evaluated using Dotmatics Atlas (Insightful Science, LLC, Boston, MA).

Row | DC50 (FAK) [nM] | FAK HiBiT Ymin (FAK) | SMILES | EC50 (CAL-51 cells) [nM] | CAL-51 Prolif Ymin (CAL-51 cells)
1 | 2 | 7.78 | O=C1CC[C@H](N2Cc3cc(Cn4ncc5c(-c6ncc(OC(F)F)cc6Cl)cc(N6CC(F)C6)nc54)ccc3C2=O)C(=O)N1 [Example 49, (3S)-3-[5-({4-[3-chloro-5-(difluoromethoxy)pyridin-2-yl]-6-(3-fluoroazetidin-1-yl)-1H-pyrazolo[3,4-b]pyridin-1-yl}methyl)-1-oxo-2,3-dihydro-1H-isoindol-2-yl]piperidine-2,6-dione] | 0.37 | 23.11
2 | 8.4 | 5.59 | O=C1CC[C@@H](N2Cc3cc(Cn4ncc5c(-c6ncc(C(F)(F)F)cc6Cl)c(F)c(N6CC(F)C6)nc54)ccc3C2=O)C(=O)N1 (single isomer, unassigned) [Example 78] | 1.76 | 24.33
3 | 45.8 | 73.08 | CCOc1ccc(Cl)c(-c2cc(N3CC(F)C3)nc3c2cnn3Cc2ccc3c(c2)CN([C@H]2CCC(=O)NC2=O)C3=O)n1 [Example 111, (3S)-3-(5-{[4-(3-chloro-6-ethoxypyridin-2-yl)-6-(3-fluoroazetidin-1-yl)-1H-pyrazolo[3,4-b]pyridin-1-yl]methyl}-1-oxo-2,3-dihydro-1H-isoindol-2-yl)piperidine-2,6-dione] | 551 | 60.03
4 | 213 | 42.87 | O=C1CC[C@@H](N2Cc3cc(Cn4ncc5c(-c6ncc(C7COC7)cc6Cl)cc(N6CC(F)C6)nc54)ccc3C2=O)C(=O)N1 (single isomer, unassigned) [Example 127] | 8.94 | 37.97
5 | 29.6 | 5.76 | Cc1nc2c(-c3ncc(F)cc3Cl)cc(N3CC(F)C3)nc2n1Cc1ccc2c(c1)CN(C1CCC(=O)NC1=O)C2=O (centres unmarked) [Example 24, 3-(5-((7-(3-chloro-5-fluoropyridin-2-yl)-5-(3-fluoroazetidin-1-yl)-2-methyl-3H-imidazo[4,5-b]pyridin-3-yl)methyl)-1-oxoisoindolin-2-yl)piperidine-2,6-dione] | 4.05 | 23.72
6 | 7.97 | 9.51 | O=C1CC[C@H](N2Cc3nc(Cn4ncc5c(-c6ncc(C(F)(F)F)cc6Cl)cc(N6CC(F)C6)nc54)ccc3C2=O)C(=O)N1 [Example 76, (3S)-3-[2-({4-[3-chloro-5-(trifluoromethyl)pyridin-2-yl]-6-(3-fluoroazetidin-1-yl)-1H-pyrazolo[3,4-b]pyridin-1-yl}methyl)-5-oxo-5H,6H,7H-pyrrolo[3,4-b]pyridin-6-yl]piperidine-2,6-dione] | 6.15 | 34.59
7 | ≥ 1000 | 89.82 | O=C1CCC(N2Cc3cc(Cn4ncc5c(-c6ncc(C(F)(F)F)cc6Cl)cc(N[C@H]6CCOC6)nc54)ccc3C2=O)C(=O)N1 (stereo partly drawn) [Example 132, 3-[5-({4-[3-chloro-5-(trifluoromethyl)pyridin-2-yl]-6-{[(3S)-oxolan-3-yl]amino}-1H-pyrazolo[3,4-b]pyridin-1-yl}methyl)-1-oxo-2,3-dihydro-1H-isoindol-2-yl]piperidine-2,6-dione] | 0.1 | 89.52
8 | 22.9 | 12.95 | COc1cnc(-c2cc(N3CC(F)C3)nc3c2cnn3Cc2ccc3c(c2)CN(C2CCC(=O)NC2=O)C3=O)c(C)c1 (centres unmarked) [Example 97, 3-(5-{[6-(3-fluoroazetidin-1-yl)-4-(5-methoxy-3-methylpyridin-2-yl)-1H-pyrazolo[3,4-b]pyridin-1-yl]methyl}-1-oxo-2,3-dihydro-1H-isoindol-2-yl)piperidine-2,6-dione] | 14.4 | 38.61
